Reference: patent US20200361871A1 (Enterprise Therapeutics Ltd., priority 2018, published 2020)

Biological target: human TMEM16A (TMEM16Aabc variant) (Homo sapiens, UniProt Q5XXA6, DEL476-501, form not given)
Assay: Automated whole-cell patch clamp (Qpatch) TMEM16A potentiator assay in FRT cells stably expressing human TMEM16A
Assay type: cell-based
Conditions: for % Potentiation @ 3.33 μM Avg: 3.33 μM solution of test compound, percentage increase of baseline TMEM16A current; for EC50: calculated EC50, Qpatch TMEM16A current at +70 mV
Description: FIG. 1 is an example trace from a whole-cell patch clamp (Qpatch) TMEM16A potentiator assay as used in Biological Example 95 and illustrates the methodology used in the assay. In FIG. 1: S is Saline; V is Vehicle; #1 is Test Compound concentration #1; #2 is Test Compound concentration 2; #3 is Test Compound concentration 3; #4 is Test Compound concentration 4; #5 is Test Compound concentration #5; and R is Reference. The arrow in column V represents the baseline current, IBL. The arrows in each of the columns #1, #2, #3, #4, #5 and R represent I#[1], I#[2], I#[3], I#[4], I#[5] and I[Ref], which are the peak currents during the incubation periods for test compounds concentrations #1 to #5 and the Reference.
Fisher rat thyroid (FRT) cells stably expressing human TMEM16A (TMEM16Aabc variant; Dr Luis Galietta, Insituto Giannina, Italy) were cultured in T-75 flasks in Hams F-12 media with Coon's modification (Sigma) supplemented with 10% (v/v) foetal bovine serum, penicillin-streptomycin (10,000 U/mL/10000 μg/mL), G-418 (750 μg/mL), L-glutamine (2 mM) and sodium bicarbonate solution (7.5% v/v). At ˜90% confluence cells were harvested for experiments by detachment with a 2:1 (v/v) mixture of Detachin (BMS Biotechnology) and 0.25% (w/v) trypsin-EDTA. Cells were diluted to a density of 3.5-4.5×10^6 cells/mL with media consisting of CHO-S-SFM II (Sigma), 25 mM HEPES (Sigma) and Soy bean trypsin inhibitor (Sigma).
FRT-TMEM16A cells were whole-cell patch clamped using an automated planar patch clamp system (Qpatch, Sophion). Briefly, once high resistance (GOhm) seals were established between the cells and the planar recording array the patch was ruptured using suction pulses to establish the whole-cell recording configuration of the patch clamp technique. The assay employed the following solutions (all reagents Sigma): Intracellular solution (mM): N-methyl-D-glucamine 130, CaCl2 18.2, MgCl2 1, HEPES 10, EGTA 10, BAPTA 20, Mg-ATP 2, pH 7.25, 325 mOsm with sucrose.
Extracellular solution (mM): N-methyl-D-glucamine 130, CaCl2 2, MgCl2 1, HEPES 10, pH 7.3, 320 mOsm with sucrose.
The intracellular solution buffers intracellular calcium at levels required to give ˜20% activation of the maximal TMEM16A mediated current (EC20 for calcium ions). Cells were voltage clamped at a holding potential of −70 mV and a combined voltage step (to +70 mV)/ramp (−90 my to +90 mV) was applied at 0.05 Hz. After a period of current stabilisation test compounds, solubilised in 100% (v/v) DMSO and subsequently diluted into extracellular solution, were applied to generate a cumulative concentration response curve. Each concentration of test compound was incubated for 5 minutes before addition of the next concentration. After the final concentration was tested a supramaximal concentration of either a known active positive modulator or the TMEM16A inhibitor, CaCCinhA01 (Del La Fuente et al, 2008) was added to define the upper and lower limits of the assay.
Compound activity was quantified by measuring the increase in current upon compound addition and expressing this as a percentage increase of baseline TMEM16A current level. Percentage increases in current were determined for each concentration and the data plotted as a function of concentration using either the Qpatch software or Graphpad Prism v6.05 providing the concentration which gave 50% of its maximal effect (EC50) and maximum efficacy (percentage of baseline increase).
In FIG. 1, IBL equals baseline current, I[#1] equals the peak current during test compound concentration 1 incubation period and so on.
Peak TMEM16A current at +70 mV was plotted as a function of time over the assay period. Baseline current (IBL) was measured after a period of stabilisation. The increase in current for each compound addition was determined by taking the peak current during the incubation period and subtracting the current from the previous recording period and then expressing this as a percentage of the baseline current. […]

Sequence of human TMEM16A (TMEM16Aabc variant) (Q5XXA6 with tags, fused parts or gaps DEL476-501): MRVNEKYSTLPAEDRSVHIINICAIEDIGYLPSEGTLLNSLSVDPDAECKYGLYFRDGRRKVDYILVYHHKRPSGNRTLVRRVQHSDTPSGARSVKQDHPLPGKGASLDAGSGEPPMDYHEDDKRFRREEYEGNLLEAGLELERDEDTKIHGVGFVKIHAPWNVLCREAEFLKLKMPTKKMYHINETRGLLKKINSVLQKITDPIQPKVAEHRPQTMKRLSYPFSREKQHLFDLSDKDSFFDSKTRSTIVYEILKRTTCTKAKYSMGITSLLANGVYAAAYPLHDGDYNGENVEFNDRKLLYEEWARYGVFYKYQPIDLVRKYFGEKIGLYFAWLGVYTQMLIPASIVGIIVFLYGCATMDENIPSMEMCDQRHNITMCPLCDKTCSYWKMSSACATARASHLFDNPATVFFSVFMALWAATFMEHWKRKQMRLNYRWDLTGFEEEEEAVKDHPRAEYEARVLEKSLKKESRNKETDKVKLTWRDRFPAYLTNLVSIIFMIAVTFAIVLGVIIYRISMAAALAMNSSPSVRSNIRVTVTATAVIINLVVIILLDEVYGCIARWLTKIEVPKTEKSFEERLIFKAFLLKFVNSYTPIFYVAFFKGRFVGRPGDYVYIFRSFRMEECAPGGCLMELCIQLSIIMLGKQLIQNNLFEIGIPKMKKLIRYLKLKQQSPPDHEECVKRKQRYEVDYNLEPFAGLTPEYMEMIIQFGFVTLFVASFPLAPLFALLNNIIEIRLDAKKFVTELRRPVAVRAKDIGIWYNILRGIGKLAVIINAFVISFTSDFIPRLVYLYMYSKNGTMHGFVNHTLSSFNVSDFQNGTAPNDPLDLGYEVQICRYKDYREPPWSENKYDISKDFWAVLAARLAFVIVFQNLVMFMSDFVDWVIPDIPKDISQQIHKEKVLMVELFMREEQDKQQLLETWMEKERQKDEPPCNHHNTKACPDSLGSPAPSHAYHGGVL

Compound	% Potentiation @ 3.33 μM Avg	EC50
CC(C)(C#N)NC(=O)c1cc(NC(=O)C2(Cc3ccccc3)CC2)ccn1 [Example 83.11, 4-[(1-Benzylcyclopropanecarbonyl)amino]-N-(1-cyano-1-methyl-ethyl)pyridine-2-carboxamide]	13%	–
CC(C)(C)NC(=O)c1ccc(F)c(NC(=O)Cc2cc(Cl)ccc2O)c1 [Example 9, N-tert-Butyl-3-[[2-(5-chloro-2-hydroxy-phenyl)acetyl]amino]-4-fluoro-benzamide]	149%	230 nM
COc1ccc(Cl)cc1CC(=O)Nc1ccnc(C(=O)NC(C)(C)C)c1 [Example 5.10, N-tert-Butyl-4-[[2-(5-chloro-2-methoxy-phenyl)acetyl]amino]pyridine-2-carboxamide]	78%	3770 nM
O=C(Cc1cc(Cl)ccc1O)Nc1ccnc(C(=O)N[C@H]2CCCC[C@H]2CO)c1 [Example 35.2, 4-[[2-(5-Chloro-2-hydroxy-phenyl)acetyl]amino]-N-[(1s,2r)-2-(hydroxymethyl)cyclohexyl]pyridine-2-carboxamide]	300%	610 nM
COC(=O)c1ccc(O)c(CC(=O)Nc2ccnc(C(=O)NC(C)(C)C)c2)c1 [Example 13, Methyl 3-[2-[[2-(tert-butylcarbamoyl)-4-pyridyl]amino]-2-oxo-ethyl]-4-hydroxy-benzoate]	245%	1000 nM
CC(O)c1ccc(O)c(CC(=O)Nc2ccnc(C(=O)NC(C)(C)C)c2)c1 (stereo not shown) [Example 66, N-tert-Butyl-4-[[2-[2-hydroxy-5-(1-hydroxyethyl)phenyl]acetyl]amino]pyridine-2-carboxamide]	130%	–
N#CC1(NC(=O)c2cc(NC(=O)Cc3ccc(Cl)cc3)ccn2)CC1 [Example 23, 4-[[2-(4-Chlorophenyl)acetyl]amino]-N-(1-cyanocyclopropyl)pyridine-2-carboxamide]	93%	–
CC(C)(CN1CCOCC1)NC(=O)c1cc(NC(=O)Cc2cc(Cl)ccc2O)ccn1 [Example 32.6, 4-[[2-(5-Chloro-2-hydroxy-phenyl)acetyl]amino]-N-(1,1-dimethyl-2-morpholino-ethyl)pyridine-2-carboxamide]	153%	820 nM
CC(C)(C)NC(=O)c1cccc(NC(=O)Cc2c[nH]c3ccc(F)cc23)c1 [Example 4.2, N-tert-Butyl-3-[[2-(5-fluoro-1H-indol-3-yl)acetyl]amino]benzamide]	116%	660 nM
CC(C)(C)NC(=O)c1cc(NC(=O)C2Cc3ccccc3C2)ccn1 [Example 23.3, N-tert-Butyl-4-(indane-2-carbonylamino)pyridine-2-carboxamide]	59%	470 nM
CC(C)(C)NC(=O)c1cc(NC(=O)Cc2c(O)cccc2Cl)ccn1 [Example 3.3a, N-tert-Butyl-4-[[2-(2-chloro-6-hydroxy-phenyl)acetyl]amino]pyridine-2-carboxamide]	91%	70 nM
CC(C)(C)NC(=O)c1cccc(NC(=O)Cc2cc(F)cc(F)c2O)c1 [Example 2.9, N-tert-Butyl-3-[[2-(3,5-difluoro-2-hydroxy-phenyl)acetyl]amino] benzamide]	148%	990 nM
CC(C)(C)NC(=O)c1cc(NC(=O)C2CCCCc3ccccc32)ccn1 (stereo not shown) [Example 5.26, N-tert-Butyl-4-(6,7,8,9-tetrahydro-5H-benzo[7]annulene-5-carbonylamino) pyridine-2-carboxamide]	110%	1200 nM
CC(C)(CCO)NC(=O)c1cc(NC(=O)Cc2cc(Cl)ccc2O)ccn1 [Example 35.14, 4-[[2-(5-Chloro-2-hydroxy-phenyl)acetyl]amino]-N-(3-hydroxy-1,1-dimethyl-propyl)pyridine-2-carboxamide]	172%	270 nM
CC(C)(C)NC(=O)c1cc(NC(=O)NCCc2ccccc2)ccn1 [Example 64.2, N-tert-Butyl-4-(2-phenylethylcarbamoylamino)pyridine-2-carboxamide]	61%	–
C[C@](C#N)(CO)NC(=O)c1cc(NC(=O)Cc2cc(Cl)ccc2O)ccn1 (single isomer, unassigned) [Example 46b, 4-[[2-(5-Chloro-2-hydroxy-phenyl)acetyl]amino]-N-[(1S)-1-cyano-2-hydroxy-1-methyl-ethyl]pyridine-2-carboxamide or 4-[[2-(5-chloro-2-hydroxy-phenyl)acetyl]amino]-N-[(1R)-1-cyano-2-hydroxy-1-methyl-ethyl]pyridine-2-carboxamide]	215%	–
CC(C)(C#N)NC(=O)c1cc(NC(=O)C2CCCCC2)ccn1 [Example 83.2, N-(1-Cyano-1-methyl-ethyl)-4-(cyclohexanecarbonylamino)pyridine-2-carboxamide]	41%	–
CC(C)(C)NC(=O)c1cccc(NC(=O)Cc2cccc(F)c2O)c1 [Example 2.2, N-tert-Butyl-3-[[2-(3-fluoro-2-hydroxy-phenyl)acetyl]amino]benzamide]	158%	1610 nM
N#CC1(NC(=O)c2cc(NC(=O)Cc3cc(Cl)ccc3O)ccn2)COC1 [Example 47.3, 4-[[2-(5-Chloro-2-hydroxy-phenyl)acetyl]amino]-N-(3-cyanooxetan-3-yl)pyridine-2-carboxamide]	237%	350 nM
C#CC(C)(C)NC(=O)c1cc(NC(=O)Cc2ccc(Cl)c(O)c2)ccn1 [Example 92.2, 4-[[2-(4-Chloro-3-hydroxy-phenyl)acetyl]amino]-N-(1,1-dimethylprop-2-ynyl)pyridine-2-carboxamide]	71%	10 nM
CC(C)(C)NC(=O)c1nccc(NC(=O)Cc2cc(Cl)ccc2O)c1F [Example 28.1, N-tert-Butyl-4-[[2-(5-chloro-2-hydroxy-phenyl)acetyl]amino]-3-fluoro-pyridine-2-carboxamide]	68%	–
CC(C)(C)NC(=O)c1cc(NC(=O)Cc2ccc(C(C)(C)C)c(O)c2)ccn1 [Example 89, N-tert-Butyl-4-[[2-(4-tert-butyl-3-hydroxy-phenyl)acetyl]amino]pyridine-2-carboxamide]	366%	90 nM
C#CC(C)(C)NC(=O)c1cc(NC(=O)Cc2cc(C(F)(F)F)ccc2O)ccn1 [Example 78.2, N-(1,1-Dimethylprop-2-ynyl)-4-[[2-[2-hydroxy-5-(trifluoromethyl)phenyl]acetyl]amino]pyridine-2-carboxamide]	86%	20 nM
C#CC1(NC(=O)c2cc(NC(=O)Cc3cc(Cl)ccc3O)ccn2)CCOCC1 [Example 31.4, 4-[[2-(5-Chloro-2-hydroxy-phenyl)acetyl]amino]-N-(4-ethynyltetrahydropyran-4-yl)pyridine-2-carboxamide]	186%	20 nM
O=C(Cc1cc(Cl)ccc1O)Nc1ccnc(C(=O)N[C@H]2CCCC[C@@H]2O)c1 (single isomer, unassigned) [Example 31.3a, 4-[[2-(5-Chloro-2-hydroxy-phenyl)acetyl]amino]-N-[(1S,2S)-2-hydroxycyclohexyl]pyridine-2-carboxamide or 4-[[2-(5-Chloro-2-hydroxy-phenyl)acetyl]amino]-N-[(1R,2R)-2-hydroxycyclohexyl]pyridine-2-carboxamide]	238%	550 nM
